In BindingDB's records for patent US12084442 (Novartis, 2024) one finds IC50 data, which are given here for 1 molecule.

The target in the experiment is T1, G protein-activated inward rectifier potassium channel 1/4 (Homo sapiens, UniProt P48544+P48549).
T1 sequence (P48549 whole entry): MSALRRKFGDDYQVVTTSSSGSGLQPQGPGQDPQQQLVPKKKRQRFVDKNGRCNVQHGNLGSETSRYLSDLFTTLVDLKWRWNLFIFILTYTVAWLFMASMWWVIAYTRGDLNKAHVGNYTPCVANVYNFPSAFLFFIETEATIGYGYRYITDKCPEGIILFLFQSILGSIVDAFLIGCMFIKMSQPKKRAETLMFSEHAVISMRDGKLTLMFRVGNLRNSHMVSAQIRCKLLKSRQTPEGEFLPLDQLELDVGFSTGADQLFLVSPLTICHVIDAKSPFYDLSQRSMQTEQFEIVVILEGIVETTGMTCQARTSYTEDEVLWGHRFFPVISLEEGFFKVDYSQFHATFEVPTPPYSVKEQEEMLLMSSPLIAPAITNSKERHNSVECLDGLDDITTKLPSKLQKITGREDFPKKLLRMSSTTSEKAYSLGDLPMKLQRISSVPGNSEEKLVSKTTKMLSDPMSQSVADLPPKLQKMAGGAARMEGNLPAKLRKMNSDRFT
T1 sequence (P48544 whole entry): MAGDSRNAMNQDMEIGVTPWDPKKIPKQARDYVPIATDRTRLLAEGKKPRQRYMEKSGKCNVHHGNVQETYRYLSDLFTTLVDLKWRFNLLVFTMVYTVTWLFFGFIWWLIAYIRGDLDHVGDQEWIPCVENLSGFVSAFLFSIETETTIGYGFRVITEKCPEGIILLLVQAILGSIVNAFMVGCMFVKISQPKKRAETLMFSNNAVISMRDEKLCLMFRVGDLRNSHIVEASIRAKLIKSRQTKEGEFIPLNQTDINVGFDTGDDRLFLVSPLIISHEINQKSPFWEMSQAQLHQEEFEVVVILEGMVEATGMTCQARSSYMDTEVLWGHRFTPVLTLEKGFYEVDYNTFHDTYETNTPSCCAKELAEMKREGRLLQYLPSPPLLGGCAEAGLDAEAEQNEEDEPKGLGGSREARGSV
Put plainly: GIRK1/4 Activity Assay. As for the experimental part: The GIRK1/4 activity of a compound according to the present invention was assessed by the following in vitro method.Buffers:a. External buffer: 10 mM NaCl, 50 mM Na Gluconate, 80 mM K Gluconate, 1.8 mM CaCl2, 1 mM MgCl2, 10 mM HEPES, 10 mM Glucose, pH 7.4; osmolarity 300-310 […].b. Internal buffer: 30 mM KCl, 100 mM K Gluconate, 1 mM MgCl2, 10 mM HEPES, 1 mM EGTA, 10 mM NaCl, pH 7.2; osmolarity […].Compounds:c. Prepare seven-fold compound dilution series (10 mM to 20 uM) in 100% DMSO, in 384-well polypropylene plates.d. Propafenone (Sigma Aldrich, catalog number P4670) was used as a positive control and DMSO for neutral controle. Resuspend 1 μl of compounds in DMSO into 66.7 μl external buffer in 384-well polypropylene plate and load into Plate 1 section of Molecular Devices Quattro Quattro Setup:f. Load 384-well Population Patch Plate (Molecular Devices #9000-0902) into Quattrog. Fill Quattro F-soak trough with 20% DMSO and 50% EtOHh. Fill Quattro buffer trough with external bufferi. Attach internal buffer flask to Quattro internal buffer tubingj. Attach PBS (Phosphate Buffered Saline, minus Ca++ and Mg++, pH7.4) bottle to F-head & E-head wash on QuattroAntibiotic:k. […] Measured magnitude of inward potassium current at time point between 1200-1220 ms from start of Pulse 1 (i.e., during the voltage ramp phase).t. […]

With `Cc1cc(=O)c2c(OCCC(N)=O)ncc(Cl)c2n1-c1c(Cl)cc(OCCO)cc1Cl` [US12084442, Example 18], half-maximal inhibition (IC50) required 30 nM.
